Legend:
[1] = tested on: transplanted tumor of MB-231 pancreatic cancer cells; experiment: Transplanted tumor of MB-231 pancreatic cancer cells in nude mice; type: in vivo; conditions: 2 mg/kg in combination with 5-fluorouracil at half dose (20 mg/kg), once a day; effect comparable to 5-fluorouracil alone 40 mg/kg
Procedure: (§1) The SMB-231 pancreatic cancer cells were thawed, and cultured in a changed medium after 24 hours. Medium preparation method: 6% serum, 1% of a bispecific antibody+a 1640 basal medium. After grown to confluent, the cells were digested and subcultured to expand the number of cells. When reached the required amount, the cells were digested by trypsin, centrifuged, and resuspended in PBS to prepare a cell suspension of 1×10^8 cells/ml. A part of the cell suspension was added with the monotropein, desacetyl asperulosidic acid, asperuloside, and asperulosidic acid respectively, and the inhibition rate (%) of tumor cell proliferation by each of these different compounds was examined.
(§2) Male adult nude mice, which had the body weights of 20-24 g, were purchased from Guangdong Medical Laboratory Animal Center. After 7 days of adaptive feeding of the animals, except for the blank group, the remaining animals were injected with 0.2 ml of a SMB-231 pancreatic cancer cell suspension in PBS at ventrodorsal and scapula sites of them, the response conditions of the animals were observed, and the body weights of the animals were determined once a week. After 2 weeks of observation, the animals were grouped into the following groups according to tumor size: a blank group; a model group; a 5-fluorouracil control group (5-Full, 40 mg/kg); monotropein+5-fluorouracil (2 mg/kg monotropein+20 mg/kg 5-fluorouracil), desacetyl asperulosidic acid+5-fluorouracil (2 mg/kg desacetyl asperulosidic acid+20 mg/kg 5-fluorouracil), asperuloside+5-fluorouracil (2 mg/kg asperuloside+20 mg/kg 5-fluorouracil), asperulosidic acid+5-fluorouracil (2 mg/kg asperulosidic acid+20 mg/kg 5-fluorouracil), these groups being labeled as: Mo, As, Aa, Da. Each group included 8 animals; and administration was conducted once a day.
(§3) The status, death conditions, and eating and drinking conditions of the animals were observed daily. The body weights of the animals were determined once a week and the tumor size of the animals was determined every 4 days. The tumor volume of the animals was determined by using a vernier caliper. After 1 month of administration, the animals were sacrificed after blood was sampled from the orbit thereof, and the tumor was separated and weighed.

[2] = tested on: SW1990 breast cancer cells; experiment: In vitro proliferation inhibition of SW1990 breast cancer cells; type: cell-based; conditions: concentration of 1 uM; compared with blank control group
Procedure: as §1, with “SW1990” for “SMB-231 pancreatic cancer”

HT29 transplanted tumor = experiment: Transplanted tumor of HT29 colon cancer cells in nude mice; type: in vivo; conditions: 2 mg/kg in combination with 5-fluorouracil at half dose (20 mg/kg), once a day; effect comparable to 5-fluorouracil alone 40 mg/kg
Procedure: as §1, with “HT29” for “SMB-231 pancreatic cancer”
as §2, with “a” for “a SMB-231 pancreatic cancer”
as §3

HT29 colon cancer cells = experiment: In vitro proliferation inhibition of HT29 colon cancer cells; type: cell-based; conditions: concentration of 1 uM; compared with blank control group
Procedure: as §1, with “HT29” for “SMB-231 pancreatic cancer”

[3] = tested on: transplanted tumor of SW1990 breast cancer cells; experiment: Transplanted tumor of SW1990 breast cancer cells in nude mice; type: in vivo; conditions: 2 mg/kg in combination with 5-fluorouracil at half dose (20 mg/kg), once a day; effect comparable to 5-fluorouracil alone 40 mg/kg
Procedure: as §1, with “SW1990” for “SMB-231 pancreatic cancer”
as §2, with “SW1990” for “SMB-231 pancreatic cancer”
as §3

[4] = tested on: AOM/DSS colon cancer model; experiment: AOM/DSS colon cancer model, Experiment 2 (colon length, thickness, tumors); type: in vivo, Balb/c mice; conditions: 2 mg/kg once a day
Procedure: (§4) Experimental method: 70 Balb/c mice of 6-8 weeks were purchased from the Experimental Animal Center in Guangzhou University of Chinese Medicine, weighed about 18-22 g, and subjected to adaptive feeding for 10 days. Modeling was divided into three stages. In the first stage, except for the normal group of animals being given saline injection, each of the other animals were intraperitoneally injected with a carcinogen AOM (10 mg/kg), and given free access to 2% DSS water from the next day for 7 days, and then given access to replaced regular drinking water for 14 days. In the second stage, the animals were given free access to 2% DSS water for 10 days, and then given access to replaced regular drinking water for 14 days. In the third stage, the animals were given free access to 2% DSS water for 10 days, and then given access to replaced regular drinking water for 11 days. The normal group was given access to regular drinking water throughout the experiment. The diet, water drinking and body weights of the animals were recorded daily and DAI scores were made, and the animals were killed and harvested at the 10th week. In this experiment, the animals were divided into groups and administrated on the first day of a modeling period of the second stage, where a total of 7 groups were set, each group including 10 animals. The first group was a blank control group (control) that was given access to drinking water by gavage; the second group was a model group (model), in which a total of 10 animals were given access to drinking water by gavage; the third group was a vitamin D3 positive administration control group (VD3, 0.2 mg/kg); and the fourth to seventh groups were given monotropein, desacetyl asperulosidic acid, asperuloside, and asperulosidic acid (groups labeled as: Mo, As, Aa, Da), respectively at a given dose of 2 mg/kg. Dosing was conducted once a day until the end of the experiment. At the end of the experiment, the animals were anesthetized and harvested, and the colon tissue was taken, measured with a ruler for the length, and measured with a vernier caliper for the thickness. The effects of monotropein, desacetyl asperulosidic acid, asperuloside and asperulosidic acid on expression of the vitamin D receptor were detected.

vitamin D receptor = experiment: Expression of vitamin D receptor in colon tissues, Experiment 2 (Western blot, immunohistochemistry); type: in vivo, Balb/c mice; conditions: compared with the blank group; VD3 0.2 mg/kg, four compounds 2 mg/kg
Procedure: as §4

[5] = tested on: SMB-231 pancreatic cancer cells; experiment: In vitro proliferation inhibition of SMB-231 pancreatic cancer cells; type: cell-based; conditions: concentration of 1 uM; compared with blank control group
Procedure: as §1

Compound	tumor proliferation in SMB-231 tumor-bearing mice [1]	proliferation of SW1990 cells in vitro [2]	tumor proliferation in HT29 tumor-bearing mice (HT29 transplanted tumor)	proliferation of HT29 colorectal cancer cells in vitro (HT29 colon cancer cells)	tumor proliferation in SW1990 tumor-bearing mice [3]	incidence and development of colorectal cancers [4]	expression of the vitamin D receptor in the colon tissues (Western blot and immunohistochemistry) (vitamin D receptor)	proliferation of SMB-231 pancreatic cancer cells in vitro [5]
CC(=O)OCC1=C[C@@H]2OC(=O)C3=CO[C@@H](O[C@@H]4O[C@H](CO)[C@@H](O)[C@H](O)[C@H]4O)[C@H]1[C@@H]32 [asperuloside]	significantly inhibit tumor proliferation	significantly inhibit the proliferation	significantly inhibit tumor proliferation	significantly inhibit the proliferation	significantly inhibit tumor proliferation	inhibiting the incidence and development of colorectal cancers	promote expression enhancement	significantly inhibit the proliferation
O=C(O)C1=CO[C@@H](O[C@@H]2O[C@H](CO)[C@@H](O)[C@H](O)[C@H]2O)[C@@H]2C(CO)=C[C@H](O)[C@H]12 [desacetyl asperulosidic acid]	significantly inhibit tumor proliferation	significantly inhibit the proliferation	significantly inhibit tumor proliferation	significantly inhibit the proliferation	significantly inhibit tumor proliferation	inhibiting the incidence and development of colorectal cancers	promote expression enhancement	significantly inhibit the proliferation
CC(=O)OCC1=C[C@H](O)[C@@H]2C(C(=O)O)=CO[C@@H](O[C@@H]3O[C@H](CO)[C@@H](O)[C@H](O)[C@H]3O)[C@H]12 [asperulosidic acid]	significantly inhibit tumor proliferation	significantly inhibit the proliferation	significantly inhibit tumor proliferation	significantly inhibit the proliferation	significantly inhibit tumor proliferation	inhibiting the incidence and development of colorectal cancers	promote expression enhancement	significantly inhibit the proliferation
C=C1CC[C@H](O)C/C1=C/C=C1\CCC[C@]2(C)[C@@H]([C@H](C)CCCC(C)C)CC[C@@H]12 [vitamin D3, reference compound]	–	–	–	–	–	–	promote expression enhancement	–

From patent US20210177879A1, “VITAMIN D RECEPTOR AGONIST” (Guanghzou University of Chinese Medicine, priority 2018, published 2021)
